Experimental data published in patent US6699459B2, “Methods of treating lung inflammation” (The Board of Regents of the University of Texas System, priority 2001, dated 2004).

Experiments:
Type in all cases: cell-based, human
[1] = system: IRF-3 mRNA; experiment: Northern blot of IRF-3 mRNA in RSV-infected A549 cells; conditions: data not shown
Procedure: (§1) Northern Blot. Total RNA was extracted from control and infected A549 cells by the acid guanidium thiocyanate-phenol chloroform method (18). Twenty micrograms of RNA were fractionated on a 1.2% agarose-formaldehyde gel, transferred to nylon membranes and hybridized to a radiolabeled RANTES, IRF-1, -3 and -7 cDNAs, as previously described (19). Hybridization temperature for all probes was 55° C. After washing, membranes were exposed for autoradiography using Kodak XAR film at −70° C. using intensifying screens. After exposure, membranes were stripped and rehybridized with a β-actin probe.

[2] = system: STAT-1; experiment: Western blot of phosphorylated and total nuclear STAT-1 in RSV-infected A549 cells; conditions: nuclear proteins, 400 μM
Procedure: (§2) Western Immunoblot. Nuclear proteins were prepared as previously described, fractionated by SDS-PAGE and transferred to PVDF membrane (20). Membranes were blocked with 5% albumin in TBS-Tween and incubated overnight with antibody recognizing the tyrosine phosphorylated form of STAT-1 and STAT-3 (Santa Cruz Biotech, Santa Cruz, Calif.). Membranes were stripped and reprobed with antibodies to STAT-1 and STAT-3 (Santa Cruz Biotech, Santa Cruz, Calif.). For secondary detection, a horseradish-coupled anti-rabbit or anti-mouse antibody was used (Santa Cruz Biotech, Santa Cruz, Calif.) in the enhanced chemiluminescence assay (Amersham Life Science, Arlington Heights, Ill.).

[3] = system: IRF-1; experiment: Western blot of IRF-1 in total cell lysates of RSV-infected A549 cells; conditions: whole cell extracts, RSV 12 hours, 400 μM
Procedure: (§3) Western Immunoblot. Total cell lysates and cytoplasmic and nuclear proteins were prepared as previously described, fractionated by SDS-PAGE and transferred to PVDF membrane (20). Membranes were blocked with 5% albumin in TBS-Tween and incubated overnight with a rabbit polyclonal antibody to IRF-1, -3 and -7 (Santa Cruz Biotech, Santa Cruz, Calif.). For secondary detection, a horseradish-coupled anti-rabbit or anti-mouse antibody was used in the enhanced chemiluminescence assay (Amersham Pharmacia Biotec, Arlington Heights, Ill.).

[4] = system: IRF-7 mRNA; experiment: Northern blot of IRF-7 mRNA in RSV-infected A549 cells; conditions: 400 μM
Procedure: as §1

[5] = system: STAT-3; experiment: Western blot of phosphorylated and total nuclear STAT-3 in RSV-infected A549 cells; conditions: nuclear proteins, 400 μM
Procedure: as §2

[6] = system: IRF-3; experiment: Western blot of nuclear IRF-3 in RSV-infected A549 cells
Procedure: as §3

[7] = system: IRF-3; experiment: Microaffinity isolation/Western blot for IRF-3 bound to RANTES ISRE; conditions: nuclear extracts, RSV 12 hours
Procedure: Microaffinity isolation assay. Microaffinity purification of proteins binding to the RANTES ISRE was performed using a two-step biotinylated DNA-streptavidin capture assay (20). In this assay, duplex oligonucleotides are chemically synthesized containing 5′ biotin (Bt) on a flexible linker (Genosys, the Woodlands, TX). Four hundred micrograms of 12 hours-infected A549 cells nuclear extracts were incubated at 4° C. for 30 minutes with 50 pmoles of Bt ISRE, in the absence or presence of 10 fold molar excess of non-biotinylated ISRE wild type (WT) or mutated (MUT). The binding buffer contained 8 μg poly dI/dC (as nonspecific competitor) and 5% (v/v) glycerol, 12 mM HEPES, 80 mM NaCl, 5 mM DTT, 5 mM Mg2Cl, 0.5 mM EDTA. One hundred μl of a 50% slurry of pre-washed streptavidin-agarose beads was then added to the sample, and incubated at 4° C. for an additional 20 minutes with gentle rocking. Pellets were washed twice with 500 μl binding buffer, and the washed pellets were resuspended in 100 μl 1×SDS-PAGE buffer, boiled and fractionated on a 10% SDS-polyacrylamide gel. After electrophoresis separation, proteins were transferred to polyvinylidene difluoride (PVDF) membrane for Western blot analysis.
Western Immunoblot. Total cell lysates and cytoplasmic and nuclear proteins were prepared as previously described, fractionated by SDS-PAGE and transferred to PVDF membrane (20). […]

[8] = system: A549 cells; experiment: Total number of cells and cell viability by trypan blue exclusion; conditions: 400 μM, data not shown
Procedure: Cell culture and infection of epithelial cells with RSV. A549, human alveolar type II-like epithelial cells (ATCC, Manassas, Va.), were maintained in F12K medium containing 10% (v/v) fetal bovine serum (FBS), 10 mM glutamine, 100 IU/ml penicillin and 100 μg/ml streptomycin. Small alveolar epithelial cells (SAE) were obtained from Clonetics (San Diego, Calif.) and grown according to the company instructions. Cell monolayers were infected with RSV at multiplicity of infection (MOI) of 1 (unless otherwise stated), as described (17). An equivalent amount of a 20% sucrose solution was added to uninfected A549 cells, as a control. For the antioxidant experiments, cells were pretreated with the antioxidants for one hour and then infected in the presence of the antioxidants. Since BHA was diluted in ethanol, equal amounts of ethanol were added to untreated cells, as a control. Total number of cells, cell viability and viral replication, following antioxidant treatment, were measured by trypan blue exclusion and by plaque assay, respectively.

[9] = system: IRF-7 ISRE; experiment: EMSA of IRF-7 ISRE binding complexes, nuclear extracts of RSV-infected A549 cells; conditions: all time points, 400 μM
Procedure: Electrophoretic mobility shift assay (EMSA): Nuclear extracts of uninfected and infected A549 cells were prepared using hypotonic/nonionic detergent lysis, as previously described (20). Proteins were normalized by protein assay (Protein Reagent, Bio-Rad, Hercules, Calif.) and used to bind to a duplex oligonucleotide corresponding to the IRF-1 gamma interferon activated sequence (GAS) and IRF-7 ISRE, whose sequences are shown below.
DNA-binding reactions contained 10-15 μg nuclear proteins, 5% glycerol, 12 mM HEPES, 80 mM NaCl, 5 mM DTT, 5 mM Mg2Cl, 0.5 mM EDTA, 1 μg of poly dI-dC and 40,000 cpm of ^32P-labeled double-stranded oligonucleotide in a total volume of 20 μl. The nuclear proteins were incubated with the probe for 15 minutes at room temperature and then fractionated by 4% nondenaturing polyacrylamide gels (PAGE) in 0.5× TBE buffer (22 mM Tris-HCl, 22 mM boric acid, 0.25 MM EDTA, pH 8), at 120 volts. After electrophoretic separation, gels were dried and exposed for autoradiography using Kodak XAR film at −70° C. using intensifying screens. In the gel mobility supershift, commercial antibodies against specific transcription factors were added to the binding reactions and incubated on ice for one hour prior to fractionation on 6% PAGE.

[10] = system: NF-κB; experiment: RSV-induced NF-κB nuclear translocation and DNA-binding in A549 cells; conditions: data not shown

Structure (SMILES): COc1ccc(O)c(C(C)(C)C)c1 [BHA, butylated hydroxyanisol]
- IRF-3 mRNA level [1]: unaffected
- RSV-induced STAT-1 phosphorylation [2]: completely blocked
- RSV-inducible nuclear STAT-1 form [2]: disappears
- nuclear STAT-1 form present in uninfected and infected cells [2]: not affected
- RSV-induced IRF-1 protein synthesis [3]: almost completely abolished
- IRF-7 mRNA accumulation ([4]; 6 and 12 hours post-infection): almost completely blocked
- IRF-7 mRNA accumulation ([4]; 24 hours post-infection): significantly reduced
- RSV-induced STAT-3 nuclear translocation [5]: completely inhibited
- RSV-induced STAT-3 phosphorylation [5]: completely abolished
- the other RSV-inducible nuclear form of IRF-3 [6]: not affected
- IRF-3 binding to RANTES ISRE [7]: almost completely abolished
- total cell number and viability [8]: unchanged
- binding of the RSV-inducible complexes to the IRF-7 ISRE probe [9]: greatly reduced
- RSV-induced NF-κB nuclear translocation and DNA-binding [10]: did not affect
